Laboratory results as given in ChEMBL document CHEMBL4321853, “Multitarget CFTR Modulators Endowed with Multiple Beneficial Side Effects for Cystic Fibrosis Patients: Toward a Simplified Therapeutic Approach †” (J Med Chem, 2019).
In brackets after ≈: the same amount, converted by molar mass. Each block holds one compound with its values, some of them ahead of it. Activity calls are given as the source filed them. No cut-off for these calls is given here.

Key:
[1] = target: Phosphatidylinositol 4-kinase beta (Homo sapiens, UniProt Q9UBF8); assay: Inhibition of recombinant human full length His6-tagged PI4KIII beta expressed in Sf9 cells incubated for 0 mins in presence of [gamma-33P ATP] by scintillation counting method
Phosphatidylinositol 4-kinase beta, sequence (Q9UBF8 whole entry): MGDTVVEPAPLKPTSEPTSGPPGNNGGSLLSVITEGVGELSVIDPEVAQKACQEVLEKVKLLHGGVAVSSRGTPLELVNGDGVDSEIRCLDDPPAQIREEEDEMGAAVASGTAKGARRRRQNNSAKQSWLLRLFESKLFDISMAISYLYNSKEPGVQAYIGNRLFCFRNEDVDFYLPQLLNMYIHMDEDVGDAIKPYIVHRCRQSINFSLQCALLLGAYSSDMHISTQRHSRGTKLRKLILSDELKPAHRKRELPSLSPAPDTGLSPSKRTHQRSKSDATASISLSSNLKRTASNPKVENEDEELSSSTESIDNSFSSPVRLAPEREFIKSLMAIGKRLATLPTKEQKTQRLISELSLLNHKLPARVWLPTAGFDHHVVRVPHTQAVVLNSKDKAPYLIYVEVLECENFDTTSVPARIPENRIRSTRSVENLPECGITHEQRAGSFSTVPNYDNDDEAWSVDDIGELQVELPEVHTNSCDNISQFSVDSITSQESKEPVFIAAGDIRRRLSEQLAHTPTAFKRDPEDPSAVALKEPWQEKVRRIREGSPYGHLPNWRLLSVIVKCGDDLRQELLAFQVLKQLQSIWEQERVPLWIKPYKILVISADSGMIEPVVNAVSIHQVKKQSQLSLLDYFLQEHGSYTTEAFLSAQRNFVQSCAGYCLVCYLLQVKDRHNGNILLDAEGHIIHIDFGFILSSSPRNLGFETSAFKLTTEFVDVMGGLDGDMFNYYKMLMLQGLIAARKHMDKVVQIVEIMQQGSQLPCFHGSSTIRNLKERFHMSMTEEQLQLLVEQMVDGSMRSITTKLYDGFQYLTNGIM

Enterovirus A71 = assay: Antiviral activity against Enterovirus A71 infected in human RD cells assessed as reduction in cytopathic effect incubated for 2 to 3 days by MTS assay; format: functional, organism-based
[2] = Cytotoxicity against human RD cells assessed as reduction in cell viability incubated for 2 to 3 days by MTS assay; format: cell-based
[3] = Stability in human plasma assessed as half life measured upto 24 hrs by UV/LC-MS analysis; format: ADME, cell-free
Albumin [4] = target: T1, Albumin (Homo sapiens, UniProt P02768); assay: Binding affinity to human serum albumin assessed as dissociation constant incubated for 30 mins by spectrofluorimetry; format: ADME
T1 sequence (P02768 whole entry): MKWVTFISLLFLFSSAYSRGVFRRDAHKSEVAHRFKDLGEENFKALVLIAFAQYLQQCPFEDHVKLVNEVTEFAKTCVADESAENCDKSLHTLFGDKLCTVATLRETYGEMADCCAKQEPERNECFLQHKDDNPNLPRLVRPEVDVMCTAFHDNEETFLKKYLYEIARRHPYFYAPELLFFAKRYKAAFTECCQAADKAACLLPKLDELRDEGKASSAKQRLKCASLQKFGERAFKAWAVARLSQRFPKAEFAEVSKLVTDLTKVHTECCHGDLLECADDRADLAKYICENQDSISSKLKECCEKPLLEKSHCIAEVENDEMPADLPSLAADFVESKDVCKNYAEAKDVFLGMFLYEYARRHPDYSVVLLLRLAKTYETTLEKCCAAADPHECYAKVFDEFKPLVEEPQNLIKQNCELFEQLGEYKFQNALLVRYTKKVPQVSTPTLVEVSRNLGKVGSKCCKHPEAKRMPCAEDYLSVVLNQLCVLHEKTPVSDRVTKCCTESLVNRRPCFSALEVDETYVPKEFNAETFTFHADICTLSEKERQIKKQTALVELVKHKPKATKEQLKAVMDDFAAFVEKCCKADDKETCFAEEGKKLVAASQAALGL

[5] = Aqueous solubility of compound by LC-MS analysis; format: physicochemical; conditions: buffer
[6] = Membrane retention of compound by PAMPA assay; format: ADME
[7] = Metabolic stability in human liver microsomes assessed as compound remaining at 50 uM incubated for 1 hr by UV/LC-MS analysis; format: ADME, Microsome; conditions: read-out: Stability
Albumin [8] = target: T1, Albumin; assay: Binding affinity to human serum albumin assessed as maximum binding at 0.1 to 500 uM incubated for 30 mins by spectrofluorimetry; format: ADME; conditions: isolated protein, 0.5 h
[9] = Apparent permeability of compound by PAMPA assay; format: ADME
[10] = system: Cystic fibrosis transmembrane conductance regulator (Homo sapiens), P13569 [F508del]; assay: Corrector activity at CFTR F508del mutant (unknown origin) transfected in human HEK293 membrane cells assessed as increase in CFTR F508del level at 10 uM incubated for 24 hrs by using pHTomato probe based fluorescence inverted microscopic analysis; format: cell-based
Cystic fibrosis transmembrane conductance regulator (Homo sapiens), P13569 [F508del], sequence (P13569 as listed by the source): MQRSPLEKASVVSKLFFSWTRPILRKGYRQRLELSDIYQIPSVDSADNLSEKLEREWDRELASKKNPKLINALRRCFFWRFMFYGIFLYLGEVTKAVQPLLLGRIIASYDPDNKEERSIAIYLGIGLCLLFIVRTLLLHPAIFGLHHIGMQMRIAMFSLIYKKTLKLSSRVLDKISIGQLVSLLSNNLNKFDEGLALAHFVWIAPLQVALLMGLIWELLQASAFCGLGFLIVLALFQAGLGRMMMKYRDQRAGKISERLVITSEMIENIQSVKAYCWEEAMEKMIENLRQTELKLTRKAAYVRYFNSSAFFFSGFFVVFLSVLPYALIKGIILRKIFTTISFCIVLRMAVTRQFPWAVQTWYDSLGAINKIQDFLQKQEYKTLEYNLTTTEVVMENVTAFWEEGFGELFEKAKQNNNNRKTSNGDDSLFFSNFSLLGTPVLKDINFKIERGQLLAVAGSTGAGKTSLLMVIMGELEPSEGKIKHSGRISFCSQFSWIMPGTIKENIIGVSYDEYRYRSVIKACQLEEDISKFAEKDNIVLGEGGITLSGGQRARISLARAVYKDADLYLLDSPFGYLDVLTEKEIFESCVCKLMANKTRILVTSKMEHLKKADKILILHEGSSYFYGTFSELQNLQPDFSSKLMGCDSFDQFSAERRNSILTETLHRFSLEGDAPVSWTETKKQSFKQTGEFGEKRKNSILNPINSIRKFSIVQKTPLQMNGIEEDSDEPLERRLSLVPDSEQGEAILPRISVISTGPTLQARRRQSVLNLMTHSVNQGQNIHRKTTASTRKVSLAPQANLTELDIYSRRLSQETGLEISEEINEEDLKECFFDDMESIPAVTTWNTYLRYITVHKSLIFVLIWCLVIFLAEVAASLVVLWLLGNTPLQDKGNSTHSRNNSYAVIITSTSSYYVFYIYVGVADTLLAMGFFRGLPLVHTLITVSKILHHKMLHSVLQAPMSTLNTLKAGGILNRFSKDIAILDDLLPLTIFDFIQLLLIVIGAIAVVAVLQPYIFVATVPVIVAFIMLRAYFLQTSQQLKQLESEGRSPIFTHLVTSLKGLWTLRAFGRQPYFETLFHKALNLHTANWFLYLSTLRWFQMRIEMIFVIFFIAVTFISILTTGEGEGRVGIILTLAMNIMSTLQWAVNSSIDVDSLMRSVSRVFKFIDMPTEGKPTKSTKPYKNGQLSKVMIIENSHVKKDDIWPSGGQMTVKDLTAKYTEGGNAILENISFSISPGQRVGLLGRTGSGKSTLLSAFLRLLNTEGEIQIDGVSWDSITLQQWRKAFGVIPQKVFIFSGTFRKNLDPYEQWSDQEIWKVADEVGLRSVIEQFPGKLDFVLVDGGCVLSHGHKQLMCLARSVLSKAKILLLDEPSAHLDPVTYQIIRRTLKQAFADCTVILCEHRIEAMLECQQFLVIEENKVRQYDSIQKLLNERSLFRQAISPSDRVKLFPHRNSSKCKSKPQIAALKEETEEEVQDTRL

[11] = system: Cystic fibrosis transmembrane conductance regulator (Homo sapiens), P13569 [F508del]; assay: Corrector activity at CFTR F508del mutant (unknown origin) transfected in human HEK293 membrane cells assessed as increase in CFTR level at 3 uM incubated for 24 hrs by using pHTomato probe based fluorescence inverted microscopic analysis; format: cell-based
[12] = system: Cystic fibrosis transmembrane conductance regulator (Homo sapiens), P13569 [F508del]; assay: Corrector activity at CFTR F508del mutant (unknown origin) transfected in human HEK293 membrane cells assessed as increase in anion permeability at 3 uM incubated for 24 hrs by using YFP probe based fluorescence inverted microscopic analysis; format: cell-based
[13] = Cytotoxicity against human RD cells infected with Human rhinovirus B14 assessed as reduction in cell viability incubated for 2 to 3 days by MTS assay; format: cell-based
[14] = Toxicity in C57BL/6 mouse assessed as effect on alveolar microstructure upto 180 mg/kg, sc observed after 4 and 72 hrs by hematoxylin and eosin staining based microscopy; format: organism-based; conditions: in vivo
[15] = Toxicity in C57BL/6 mouse assessed as effect on hepatic labyrinth of hepatocytes upto 180 mg/kg, sc observed after 4 and 72 hrs by hematoxylin and eosin staining based microscopy; format: organism-based; conditions: in vivo
[16] = Cytotoxicity against human RD cells infected with Human coxsackievirus B3 assessed as reduction in cell viability incubated for 2 to 3 days by MTS assay; format: cell-based
[17] = Acute toxicity in C57BL/6 mouse assessed as effect on behavior changes upto 180 mg/kg, sc observed for 15 days; format: organism-based; conditions: in vivo, 360 h
[18] = Toxicity in C57BL/6 mouse assessed as hemorrhage in lung upto 180 mg/kg, sc observed after 4 and 72 hrs by hematoxylin and eosin staining based microscopy; format: organism-based; conditions: in vivo
[19] = Toxicity in C57BL/6 mouse assessed as alveolar/interstitial inflammatory infiltrate upto 180 mg/kg, sc observed after 4 and 72 hrs by hematoxylin and eosin staining based microscopy; format: organism-based; conditions: in vivo
[20] = Acute toxicity in C57BL/6 mouse assessed as body weight loss upto 180 mg/kg, sc observed for 15 days; format: organism-based; conditions: in vivo, 360 h
Coxsackievirus B3 = assay: Antiviral activity against Human coxsackievirus B3 infected in human RD cells assessed as reduction in cytopathic effect incubated for 2 to 3 days by MTS assay; format: functional, organism-based; conditions: Enterovirus B
rhinovirus B14 = assay: Antiviral activity against Human rhinovirus B14 infected in human RD cells assessed as reduction in cytopathic effect incubated for 2 to 3 days by MTS assay; format: functional, organism-based; conditions: Rhinovirus B
rhinovirus A2 = assay: Antiviral activity against Human rhinovirus A2 infected in human RD cells assessed as reduction in cytopathic effect incubated for 2 to 3 days by MTS assay; format: functional, organism-based; conditions: Rhinovirus A
[21] = Toxicity in C57BL/6 mouse assessed as epithelial hyperplasia upto 180 mg/kg, sc observed after 4 and 72 hrs by hematoxylin and eosin staining based microscopy; format: organism-based; conditions: in vivo
[22] = Acute toxicity in C57BL/6 mouse assessed as effect on motor coordination upto 180 mg/kg, sc observed for 15 days; format: organism-based; conditions: in vivo, 360 h
[23] = Toxicity in C57BL/6 mouse assessed as effect on distribution of goblet cells upto 180 mg/kg, sc observed after 4 and 72 hrs by hematoxylin and eosin staining based microscopy; format: organism-based; conditions: in vivo
[24] = Toxicity in C57BL/6 mouse assessed as inflammation of intestinal submucosa upto 180 mg/kg, sc observed after 4 and 72 hrs by hematoxylin and eosin staining based microscopy; format: organism-based; conditions: in vivo
[25] = Selectivity index, ratio of CC50 for human RD cells to EC50 for Enterovirus A71 infected in human RD cells; format: toxicity, cell-based; conditions: read-out: Ratio CC50/EC50
[26] = Cytotoxicity against human RD cells infected with Human rhinovirus A2 assessed as reduction in cell viability incubated for 2 to 3 days by MTS assay; format: cell-based
[27] = Toxicity in C57BL/6 mouse assessed as effect on columnar lining cell upto 180 mg/kg, sc observed after 4 and 72 hrs by hematoxylin and eosin staining based microscopy; format: organism-based; conditions: in vivo
[28] = Enterovirus A, RD, read-out: EC50

IC50 [1]: Not Active
SMILES: C=CS(=O)(=O)Nc1nc(-c2sc(NC(C)=O)nc2C)cs1
EC50 (Enterovirus A71; [28]): > 290 µM

SMILES: CC(=O)Nc1nc(C)c(-c2csc(NC3CCC(C)CC3)n2)s1 (stereo not given)
CC50 [2]: 10.9 µM | EC50 (Enterovirus A71; [28]): 0.34 µM

half-life [3]: 3.61 days | Kd (Albumin [4]): 11.7 µM | solubility [5]: 0.02 µM (≈ 0.00914 µg/mL) | R% [6]: 37.9% | remaining at 1 h, 50 µM [7]: 98% | Bmax (Albumin [8]): 88.82 | Papp [9]: 8.1 ×10⁻⁶ cm/s
SMILES: COc1ccc(Cl)cc1Nc1nc(-c2sc(NC(=O)c3ccccc3)nc2C)cs1

Activity [10]: Active | Activity [11]: Active | Activity [12]: Active
SMILES: Cc1nc(NC(=O)C(C)(C)C)sc1-c1csc(N(CCO)C2CCCCC2)n1
CC50 [2]: 4.46 µM | EC50 (Enterovirus A71; [28]): 4.96 µM

SMILES: CC(=O)Nc1nc(C)c(-c2csc(N(CCO)c3cccc(C(C)=O)c3)n2)s1
EC50 (Enterovirus A71): Not Active

SMILES: Cc1nc(NC(=O)c2ccccc2)sc1-c1csc(NCCO)n1
EC50 (Enterovirus A71): Not Active

SMILES: CC(=O)Nc1nc(C)c(-c2csc(NC(=O)/C=C/C(C)C)n2)s1
CC50 [2]: 172 µM | EC50 (Enterovirus A71; [28]): 107 µM

SMILES: Cc1nc(NC(=O)C(C)(C)C)sc1-c1csc(NCCC(=O)O)n1
CC50 [2]: > 271 µM | EC50 (Enterovirus A71; [28]): 6.48 µM

Activity [11]: Active
SMILES: CC(=O)c1cccc(Nc2nc(-c3sc(NC(=O)OC(C)(C)C)nc3C)cs2)c1

SMILES: Cc1nc(NC(=O)C(C)(C)C)sc1-c1csc(NCCCC(=O)O)n1
CC50 [2]: 261 µM | EC50 (Enterovirus A71; [28]): 7.27 µM

SMILES: Cc1nc(NC(=O)C(C)(C)C)sc1-c1csc(NCC(=O)O)n1
CC50 [2]: > 282 µM | EC50 (Enterovirus A71; [28]): 5.31 µM

SMILES: CC(=O)Nc1nc(C)c(-c2csc(NC3CCCCC3)n2)s1
CC50 [2]: 25.5 µM | EC50 (Enterovirus A71; [28]): 1.1 µM

SMILES: CC(=O)c1cccc(N(CCO)c2nc(-c3sc(NC(=O)C(C)(C)C)nc3C)cs2)c1
CC50 [13]: 16.8 µM | Activity [14]: Non-Toxic | Activity [15]: Non-Toxic | half-life [3]: 24.2 days | CC50 [2]: 28.9 µM | CC50 [16]: > 218 µM | Kd (Albumin [4]): 18.5 µM | solubility ([5]; read-out: solubility): 0.1 µM (≈ 0.0459 µg/mL) | Activity [17]: Non-Toxic | Activity [18]: Non-Toxic | Activity [19]: Non-Toxic | Activity [20]: Non-Toxic | Activity [10]: Active | EC50 (Coxsackievirus B3): 6.6 µM | EC50 (rhinovirus B14): > 9.1 µM | EC50 (rhinovirus A2): 6.1 µM | Activity [21]: Non-Toxic | Activity [11]: Active | R% [6]: < 0.1% | EC90 (Enterovirus A71; Enterovirus A, RD): 5.78 µM | EC50 (Enterovirus A71; [28]): < 0.43 µM | remaining at 1 h, 50 µM [7]: 98% | Activity [22]: Non-Toxic | Activity [23]: Non-Toxic | Bmax (Albumin [8]): 81.73 | Activity [12]: Active | Activity [24]: Non-Toxic | selectivity ratio [25]: > 67.2 | CC50 [26]: 16.8 µM | Activity [27]: Non-Toxic

SMILES: CCC(=O)Nc1nc(-c2sc(NC(C)=O)nc2C)cs1
EC50 (Enterovirus A71): Not Active

SMILES: CC(=O)Nc1nc(C)c(-c2csc(N(C)C3CCCCC3)n2)s1
CC50 [2]: 19.4 µM | EC50 (Enterovirus A71; [28]): 0.88 µM

SMILES: C=CC(=O)Nc1nc(-c2sc(NC(C)=O)nc2C)cs1
CC50 [2]: 6.01 µM | EC50 (Enterovirus A71; [28]): 1.89 µM

SMILES: CC(=O)Nc1nc(C)c(-c2csc(N(CCO)C3CCCCC3)n2)s1
CC50 [13]: 4.51 µM | CC50 [2]: 16.4 µM | CC50 [16]: 20.8 µM | EC50 (Coxsackievirus B3): 16.1 µM | EC50 (rhinovirus B14): 6.24 µM | EC50 (rhinovirus A2): > 263 µM | EC50 (Enterovirus A71; [28]): 1.1 µM | CC50 [26]: > 4.51 µM

SMILES: Cc1nc(NC(=O)OC(C)(C)C)sc1-c1csc(NCCO)n1
CC50 [2]: > 421 µM | EC50 (Enterovirus A71; [28]): 11.4 µM

SMILES: CC(=O)Nc1nc(C)c(-c2csc(NC(=O)CBr)n2)s1
EC50 (Enterovirus A71): Not Active

Activity [10]: Active | Activity [11]: Active | Activity [12]: inactive
SMILES: Cc1nc(NC(=O)C(C)(C)C)sc1-c1csc(NCCO)n1
CC50 [13]: 41.2 µM | CC50 [2]: 361 µM | CC50 [16]: > 293 µM | EC50 (Coxsackievirus B3): 2.3 µM | EC50 (rhinovirus B14): 3.8 µM | EC50 (rhinovirus A2): 5.4 µM | EC50 (Enterovirus A71; [28]): 1.83 µM | CC50 [26]: 41.2 µM

Activity [11]: Active
SMILES: CC(=O)c1cccc(Nc2nc(-c3sc(NC(=O)c4ccccc4)nc3C)cs2)c1

SMILES: CC(=O)Nc1nc(C)c(-c2csc(NCCO)n2)s1
CC50 [2]: 333 µM | EC50 (Enterovirus A71; [28]): 12.6 µM

Activity [10]: Active | Activity [11]: Active | Activity [12]: Active
SMILES: Cc1nc(NC(=O)C(C)(C)C)sc1-c1csc(Nc2cccc(C(=O)O)c2)n1
CC50 [13]: 36.3 µM | CC50 [2]: 32.1 µM | CC50 [16]: 111 µM | EC50 (Coxsackievirus B3): 17 µM | EC50 (rhinovirus B14): 15.3 µM | EC50 (rhinovirus A2): 9.7 µM | EC50 (Enterovirus A71; [28]): 0.42 µM | CC50 [26]: 36.3 µM
